These results are taken from patent publication US8557800B2, “Sphingosine kinase inhibitors” (Apogee Biotechnology Corporation, priority 2005, dated 2013).

In general, IC50 refers to the point on the concentration scale where inhibition reaches its midpoint. As usually defined, the solubility is how much of the substance goes into solution per volume. A low value points to a poorly soluble substance. One may read the Cmax as the peak of the concentration-time curve. The term Tmax denotes the time at which the peak concentration occurs. By half-life is commonly meant the time in which the quantity being followed falls by half.

In series [1] the test system is Panc-1 (pancreas). The series is described as follows: Human tumor cell line panel, sulforhodamine B. The class given is cell-based. As to conditions: 48 hours, mean ± sd.
Series [2] has as its system Caco-2 (colon). The series is described as follows: Human tumor cell line panel, sulforhodamine B. The class given is cell-based. As to conditions: 48 hours, mean ± sd.
Series [3] in a line: physchem. Conditions: aqueous with cosolvent or surfactant or cyclodextrin.
The test system of series [4] is A-498 (kidney). Put plainly: Human tumor cell line panel, sulforhodamine B. The format is cell-based. As to conditions: A498, 48 hours, mean ± sd.
Series [5] concerns SK-OV-3 (ovary). Put plainly: Human tumor cell line panel, sulforhodamine B. The format is cell-based. Conditions: 48 hours, mean ± sd.
The test system of series [6] is HT-29 (colon). Put plainly: Human tumor cell line panel, sulforhodamine B. The format is cell-based. As to conditions: 48 hours, mean ± sd.
The test system of series [7] is DU145 (prostate). The series is described as follows: Human tumor cell line panel, sulforhodamine B. The class given is cell-based. As to conditions: DU-145, 48 hours, mean ± sd.
For series [8], the system named is MCF-10A non-transformed human breast epithelial cells. Put plainly: Cytotoxicity, SRB binding assay. As to conditions: inhibition of cell proliferation, 48 h, read-out: MCF-10A IC50. The format is cell-based. The method, boiled down: (§1)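 Cells exposed to varying compound doses for 48 h, then survival measured by sulforhodamine B staining. IC50 is the concentration giving 50% proliferation inhibition, in μM, as mean±sd of replicate trials.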

Series [9] relates to MCF-7 human breast adenocarcinoma cells. The series is described as follows: Cytotoxicity, SRB binding assay. The class given is cell-based. As to conditions: MCF7, inhibition of cell proliferation, 48 h, read-out: MCF-7 IC50. In a few lines: as §1
The test system of series [10] is MDA-MB-231 (breast, ER−). Put plainly: Human tumor cell line panel, sulforhodamine B. The class given is cell-based. As to conditions: 48 hours, mean ± sd.
For series [11], the system named is mouse JC mammary adenocarcimona cell line growing subcutaneously in Balb/c mice. As to the method: The antitumor activity of the representative SK inhibitors were evaluated using a syngeneic tumor model that uses the mouse JC mammary adenocarcimona cell line growing subcutaneously in immunocompetent Balb/c mice (Lee et al., 2003, Oncol Res 14: 49).
In FIG. 1, Balb/c mice, 6-8 weeks old, were injected subcutaneously with 10^6 JC cells suspended in phosphate-buffered saline. The SK inhibitors Compounds 62 and 57 were dissolved in PEG400 and administered to mice every-other day at a dose of 100 mg/kg. Body weights and tumor volumes were monitored daily. In FIG. 1, tumor growth is expressed as the tumor volume relative to day 1 for each animal.

Series [12] deals with Hep-G2 (liver). Put plainly: Human tumor cell line panel, sulforhodamine B. The format is cell-based. As to conditions: HepG2, 48 hours, mean ± sd.
For series [13], the system named is recombinant human SK. The series is described as follows: Inhibition of recombinant human SK, LC/MS/MS assay. The format is biochemical. As to conditions: 6 μg/ml compound. In a few lines:
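Enzyme incubated with unlabeled sphingosine and ATP (1 mM, as in the radiometric format) for 30 min, then stopped and extracted with acetonitrile. S1P quantified by C8 reverse-phase HPLC–MS/MS against C17 sphingosine and C17 S1P internal standards using calibration curves.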

Series [14] relates to T24 (bladder). The series is described as follows: Human tumor cell line panel, sulforhodamine B. The class given is cell-based. As to conditions: 48 hours, mean ± sd.
Series [15] can be described thus: Oral pharmacokinetics in mice (PEG400). The format is in vivo. Conditions: mouse, blood, 100 mg/kg oral gavage in PEG400, female Swiss-Webster mice. As to the method: Oral pharmacokinetic studies were performed on Compounds 62 and 57. Each compound was dissolved in PEG400 and administered to female Swiss-Webster mice at a dose of 100 mg/kg by oral gavage. Mice were anesthetized and blood was removed via cardiac puncture at 5 minutes, 30 minutes, 1, 2, and 8 hours. Concentrations of the test compounds were determined using liquid-liquid extraction, appropriate internal standards and reverse phase HPLC with UV detection. Control blood samples were run to identify compound-specific peaks. Pharmacokinetic parameters were calculated using the WINNONLIN analysis software package (Pharsight). Non-compartmental and compartmental models were tested, with the results shown in Table 7 derived from the best fit equations.

For series [16], the system named is 1025LU (melanoma). The series is described as follows: Human tumor cell line panel, sulforhodamine B. The class given is cell-based. As to conditions: 48 hours, mean ± sd.
Series [17] has as its system MCF-7 (breast, ER+). Put plainly: Human tumor cell line panel, sulforhodamine B. The format is cell-based. As to conditions: MCF7, 48 hours, mean ± sd.
Series [18] relates to endogenous SK in MDA-MB-231 human breast carcinoma cells. Put plainly: Intact cell SK assay, conversion of [3H]sphingosine to [3H]S1P. The format is cell-based. Conditions: MDA-MB-231 cells, 20 μg/ml compound. From the text:
The cells take up the exogenous [^3H]sphingosine and convert it to [^3H]S1P through the action of endogenous SK. The resulting [^3H]S1P is isolated via charge-based separation as indicated above. […] For potency studies, MDA-MB-231 cells were exposure to varying concentrations of a test Compound and then assayed for conversion of [^3H]sphingosine to [^3H]S1P.

In series [19] the test system is recombinant human SK. Put plainly: Recombinant human SK assay with [3H]sphingosine. The class given is biochemical. Conditions: positive control. As for the experimental part:
An assay for identifying inhibitors of recombinant human SK has been established (French et al., 2003, Cancer Res 63: 5962). cDNA for human SK was subcloned into a pGEX bacterial expression vector, which results in expression of the enzyme as a fusion protein with glutathione-S-transferase, and the fusion protein is then purified on a column of immobilized glutathione. SK activity is measured by incubation of the recombinant SK with [^3H]sphingosine and 1 mM ATP under defined conditions, followed by extraction of the assay mixture with chloroform:methanol under basic conditions. […] Radioactivity in aliquots of the aqueous phase is then quantified as a measure of [^3H]S1P formation. There is a low background level of partitioning of [^3H]sphingosine into the aqueous phase, and addition of the recombinant SK greatly increases the formation of [^3H]S1P.

Molecules are shown by their SMILES. Values joined by “and” are separate entries in the source; they are usually repeats but may differ in a detail not shown here. Identical values can stand only once. Like-named read-outs stand apart in the source and are kept apart here. Where only a bound is given, the exact number is not on record here.

On to `CN1CCCC1CCNC(=O)C12CC3CC(C1)CC(c1ccc(Cl)cc1)(C3)C2` (centres unmarked) [Compound 57, 3-(4-Chloro-phenyl)-adamantane-1-carboxylic acid [2-(1-methyl-pyrrolidin-2-yl)-ethyl]-amide], for which the IC50 in series [1] was 14.1 ± 6.3 µM; in series [2], 3.2 ± 2 µM; in series [4] it was 8 ± 3.5 µM; in series [5] it was 9.2 ± 2.8 µM; in series [6], 9.6 ± 4 µM; in series [7] it was 8.7 ± 3.3 µM. The half-maximal inhibitory concentration (IC50) in series [8] amounted to 8 µM; in series [9], 6 µM; in series [10], 12.5 ± 2.5 µM; in series [12] it was 5 ± 1.8 µM; in [14], 12.7 ± 2.8 µM; in series [16], 7.2 ± 0.8 µM. Besides, in series [17], the half-inhibitory concentration (IC50) is 12.1 ± 3.1 µM. The solubility in [3] is ≥ 15000 µg/mL and 30000 µM to 40000 µM. Moreover, in series [11] (100 mg/kg oral every-other day in PEG400), the “inhibition of tumor growth relative to controls” value is 78%. The In vivo activity entry in [11] (JC tumor model, intraperitoneal (ip) or oral (po) administration) is given as “active - po”. In series [13], the “Recombinant SK (% inhibition)” value is 30%. In addition, the peak level in series [15] (Cmax) was 3.8 µM. In addition, the Tmax in series [15] was determined as 2 h. For the same compound, the half-life in series [15] was 19.3 h. Moreover, the results for the AUC(0-inf) in series [15] (read-out: AUC0→∞ (μM * h)) and in [15] (read-out: AUC0→∞ (μg * h/mL)) were 111 µM·h and 45000 ng·h/mL, respectively.
With `CCn1c2ccccc2c2cc(NCC34CC5CC(C3)CC(c3ccc(Cl)cc3)(C5)C4)ccc21` [Compound 89, [3-(4-Chloro-phenyl)-adamantan-1-ylmethyl]-(9-ethyl-9H-carbazol-3-yl)-amine], the half-maximal inhibitory concentration (IC50) in [8] came out at 41 µM; in series [9] it was 74 µM. In addition, the “Recombinant SK (% inhibition)” value in series [13] amounted to 37%. Moreover, the “Cellular S1P (% inhibition)” value in [18] was determined as 1%.
For `COc1ccc(CCNC(=O)C23CC4CC(C2)CC(c2ccc(Cl)cc2)(C4)C3)cc1` [Compound 41, 3-(4-Chloro-phenyl)-adamantane-1-carboxylic acid [2-(4-methoxy-phenyl)-ethyl]-amide] the same measures were 71 µM, 6 µM, 67% and 23%.
As for `CCCCCCCCCCCCC/C=C/[C@@H](O)[C@H](CO)N(C)C` [DMS, D-erythro-N,N-dimethylsphingosine], in series [19], the “concentration that completely inhibits SK activity” value is given as “above 25 μM”.
`O=C(NCCc1ccncc1)C12CC3CC(CC(C3)C1)C2` [Compound 63, Adamantane-1-carboxylic acid (2-pyridin-4-yl-ethyl)-amide]: in series [9], the IC50 stood at 11 µM. Besides, the “Recombinant SK (% inhibition)” value in series [13] is 0%. Besides, the “Cellular S1P (% inhibition)” value in [18] is reported as 39%.
For `O=C(NCc1ccc(O)c(O)c1)C12CC3CC(C1)CC(c1ccc(Cl)cc1)(C3)C2` [Compound 36, 3-(4-Chloro-phenyl)-adamantane-1-carboxylic acid 3,4-dihydroxy-benzylamide], the half-inhibitory concentration (IC50) was 9 µM in series [8] and 13 µM in series [9]. Besides, the “Recombinant SK (% inhibition)” value in series [13] is listed as 37%. Also, the “Cellular S1P (% inhibition)” value in series [18] is 72%.
